Experimental data reported in patent US4772691A, “Chemically cleavable nucleotides” (The Medical College of Wisconsin, Inc., priority 1985, dated 1988).

Key:
E. coli DNA polymerase I = E. coli DNA polymerase I (Escherichia coli, UniProt P00582); assay: nick-translation reaction, incorporation of [32P]dCTP into 145-bp DNA; assay type: biochemical; conditions: for rate of nick-translation reaction relative to TTP: 20 μM nucleotide, relative to equal concentration of TTP
Method: Nick-Translation Reactions. Nucleosome length DNA fragments [145 base pairs (bp)]were purified from monomer nucleosomes prepared by micrococcal nuclease digestion of chicken erythrocyte nuclei followed by fractionation on an agarose A-5m column (2). Four microgram aliquots of 145-bp DNA fragments in 0.1 ml of 50 mM Tris-HCl, pH 7.5/5 mM MgCl2 /50 μg of bovine serum albumin per ml were nicktranslated (3) in the presence of 20 μM dATP and dGTP, 20 μM [^32 P]dCTP (2-5 μCi/nmol; 1 Ci =37 GBq), and either dTTP, Bio-4-dUTP, or Bio-SS-dUTP as indicated. 2-Mercaptoethanol was eliminated from the nick-translation buffer to preserve the Bio-SS-dUTP. DNase I (0.01 ng per 0.1 ml of reaction mixture) was added to the reaction, which was then incubated for 5 min at 15° C. prior to the addition of E. coli DNA polymerase I (4 units per 0.1 ml of reaction mixture).
Bio-SS-dUTP Is a Substrate for E. coli DNA Polymerase. To determine whether Bio-SS-dUTP could serve as a substrate for E. coli DNA polymerase I, its incorporation into DNA in a nick-translation reaction was measured. The incorporation of [^32 P ]dCTP into purified nucleosome-length DNA fragments (145 bp) in the presence of 20 μM dATP, dGTP, dCTP, and either the normal nucleotide, TTP, or one of three biotinylated nucleotide analogs was measured. Bio-SS-dUTP was capable of supporting the nick-translation reaction at 35%-40% the rate observed with an equal concentration of TTP. […] If no TTP is present with the biotinylated nucleotides in the nick-translation reaction, the newly synthesized DNA is very heavily biotinylated. To reduce this level of modification, the nick-translation reactions can be performed in the presence of μM/10TTP/10 μM Bio-SS-dUTP.

[1] = HPLC of Bio-SS-dUTP in presence of 2-mercaptoethanol (disulfide cleavage); assay type: physicochemical; conditions: 5 mM 2-mercaptoethanol immediately before HPLC
Method: It was not necessary to further purify the AA-dUTP by HPLC at this stage in the synthesis. Instead, 2.0 μmol of AA-dUTP in 200 μl of 0.1 M sodium borate (pH 8.5) was added directly to 2.0 μmol of sulfo-NHS-SS-biotin. The reaction was allowed to proceed at room temperature for 1 to 2 hr. The resulting Bio-SS-dUTP was purified by ion-pair reversed-phase HPLC using a Bio-Sil ODS-5S column (250×4 mm; Bio-Rad). Aliquots of the reaction (100 μl) were adjusted to 50 mM Et3 NHCO3 (pH 7.5) and 10% acetonitrile, diluted to 500 μl with the same buffer, and applied to the column at a flow rate of 0.5 ml/min (1600 psi). Bio-SS-dUTP was eluted isocratically with 50 mM Et3 NHCO3 (pH 7.5) and 10% acetonitrile. Column fractions containing Bio-SS-dUTP were pooled, rotary evaporated, resuspended in 10 mM Tris HCl (pH 7.5); and stored at -80° C. From 2.0 μmol of AA-dUTP, 1.0-1.6 μmol of Bio-SS-dUTP can be obtained by this procedure.
An identical aliquot of the Bio-SS-dUTP reaction was supplemented with 2-mercaptoethanol to a final concentration of 5 mM immediately prior to its application and chromatography on HPLC. […] Instead, there was a corresponding increase in the material eluting from the column with the solvent breakthrough (3.3 min). […]

avidin = conditions: compared with avidin-biotin; cited from earlier work

Chain of E. coli DNA polymerase I (P00582 whole entry, the tested form may be a part): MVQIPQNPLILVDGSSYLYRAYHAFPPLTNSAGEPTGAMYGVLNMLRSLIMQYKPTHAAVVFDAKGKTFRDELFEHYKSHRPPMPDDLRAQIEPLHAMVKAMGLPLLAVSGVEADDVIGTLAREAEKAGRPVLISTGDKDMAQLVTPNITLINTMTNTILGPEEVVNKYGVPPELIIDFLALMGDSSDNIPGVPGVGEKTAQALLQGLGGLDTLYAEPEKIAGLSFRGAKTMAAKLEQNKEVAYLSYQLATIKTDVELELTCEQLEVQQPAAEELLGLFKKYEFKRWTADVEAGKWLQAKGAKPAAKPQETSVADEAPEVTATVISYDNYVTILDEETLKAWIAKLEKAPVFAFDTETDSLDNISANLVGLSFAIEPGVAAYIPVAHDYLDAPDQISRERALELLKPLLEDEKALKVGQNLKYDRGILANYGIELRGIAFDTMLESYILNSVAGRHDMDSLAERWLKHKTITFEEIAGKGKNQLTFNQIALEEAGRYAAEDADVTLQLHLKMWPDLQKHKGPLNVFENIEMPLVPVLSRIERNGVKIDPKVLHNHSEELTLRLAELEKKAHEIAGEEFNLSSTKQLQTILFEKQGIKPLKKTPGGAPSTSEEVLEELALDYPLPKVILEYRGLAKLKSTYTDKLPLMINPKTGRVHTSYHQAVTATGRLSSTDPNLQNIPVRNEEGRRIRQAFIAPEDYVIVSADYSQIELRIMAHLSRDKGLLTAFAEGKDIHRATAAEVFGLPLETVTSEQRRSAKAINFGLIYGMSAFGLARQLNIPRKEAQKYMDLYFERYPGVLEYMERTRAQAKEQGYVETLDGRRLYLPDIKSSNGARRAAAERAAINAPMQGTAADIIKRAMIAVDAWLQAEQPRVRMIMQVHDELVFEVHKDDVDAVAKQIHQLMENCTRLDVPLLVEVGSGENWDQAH

## O=C(CCSSCCNC(=O)CCCC[C@@H]1SC[C@@H]2NC(=O)N[C@@H]21)NCC=Cc1cn([C@H]2C[C@H](O)[C@@H](COP(=O)(O)OP(=O)(O)OP(=O)(O)O)O2)c(=O)[nH]c1=O [Bio-SS-dUTP]
E. coli DNA polymerase I; 10 μM TTP/10 μM Bio-SS-dUTP versus 20 μM TTP alone
  rate of nick-translation reaction in mixture with TTP: only slightly slower
E. coli DNA polymerase I
  rate of nick-translation reaction relative to TTP: 35%-40%
E. coli DNA polymerase I; nick-translated with equal concentrations of TTP and Bio-SS-dUTP
  residues incorporated per nucleosome-length fragment: 2-5 residues per nucleosome-length fragment
E. coli DNA polymerase I; nick-translation
  substrate for E. coli DNA polymerase: good substrate
[1]
  intact compound after 2-mercaptoethanol (HPLC): no UV-absorbing material eluted from the column with the retention time expected for intact Bio-SS-dUTP

## N=C1N[C@H]2[C@H](CS[C@H]2CCCCC(=O)O)N1 [2-iminobiotin]
avidin
  strength of avidin-iminobiotin interaction: not nearly as strong as that of avidin-biotin

## O=C(CCCC[C@@H]1SC[C@@H]2NC(=O)N[C@@H]21)NCC=Cc1cn([C@H]2C[C@H](O)[C@@H](COP(=O)(O)OP(=O)(O)OP(=O)(O)O)O2)c(=O)[nH]c1=O [Bio-4-dUTP, reference compound]
E. coli DNA polymerase I
  rate of nick-translation reaction relative to TTP: 60%
